Measurements reported in US5540861A (priority 1994, dated 1996).

Assays:
[1] = in vivo
in vivo = conditions: po

With CCO [Ethanol] the “ORAL LD50” value [1] was 7,080 mg/kg.

CCCCCCCCCc1cc([N+](=O)[O-])c(O)c([N+](=O)[O-])c1 [DNNP (C9), 2,6dinitro-4-nonylphenol] gave an LD50 (in vivo) of 50 mg/kg.

Compound CCCCc1cc([N+](=O)[O-])c(O)c([N+](=O)[O-])c1 [DNBP (C4), 2,6dinitro-4-butylphenol] has an LD50 (in vivo) of 30 mg/kg.

With [Cl-].[Na+] [Sodium Chloride] the “ORAL LD50” value [1] was 3,000 mg/kg.
